Source: patent US20160312240A1, “MODIFIED PYR/PYL RECEPTORS ACTIVATED BY ORTHOGONAL LIGANDS” (The Regents of the University of California, priority 2010, published 2016)

What was measured:
[1] = test system: PYL2 K64R,Y124H,M164I,V67I,V114I transgenic plants; test: Water loss from detached aerial rosettes; format: in vivo, Arabidopsis; details: 100 μM spray, approximately 16 hours pretreatment, FIG. 6A-C
Method: FIGS. 6A-6C. Fenhexamid reduces water loss in transgenic PYL2^K64R, Y124H, M164I, V67I, V114I expressing plants. Shown are three independent water loss experiments (FIGS. 6A-C) conducted on transgenic plants treated with control, 100 μM fenhexamid, or 100 μM ABA containing solutions. Plants were treated as described in the Examples section below and water loss from aerial rosettes was measured after detachment.
Transgenic or control (wild-type) plants were grown under a 16 hr light/8 hr dark cycle for 3 weeks and then treated with either 100 μM (+)-ABA, 100 μM fenhexamid, or control (containing 0.1% Tween-20, 0.1% DMSO). ABA treatments were conducted as a positive control. The plants were sprayed in the evening prior to conducting water loss experiments. The next morning, approximately 16 hours post-treatment, the above-ground rosettes of the experimental samples were collected and transferred to weighing dishes, 8 plants per measured sample, and maintained under ˜90-100 μEinstein/m^2 fluorescent light illumination. Four groups of eight plants were measured per time point at 20 min intervals. The experiments were repeated three times over the course of an eight-week interval. […]

[2] = target: T1, PYR1 K59R,Y120H,M158I triple mutant (Arabidopsis thaliana, UniProt O49686, K59R/M158I/Y120H); test: In vitro receptor (PP2C) assay, 2:1 receptor to phosphatase; format: biochemical
T1 construct: 6×-His (N); made in house
T1 sequence (O49686 whole entry K59R/Y120H/M158I): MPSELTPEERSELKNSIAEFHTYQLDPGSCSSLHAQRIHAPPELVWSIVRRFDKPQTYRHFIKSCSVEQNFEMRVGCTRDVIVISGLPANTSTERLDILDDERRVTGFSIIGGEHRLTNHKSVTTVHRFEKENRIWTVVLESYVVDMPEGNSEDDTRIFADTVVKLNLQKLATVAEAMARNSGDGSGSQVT
T1 sequence (Q9CAJ0 23-511, further chain): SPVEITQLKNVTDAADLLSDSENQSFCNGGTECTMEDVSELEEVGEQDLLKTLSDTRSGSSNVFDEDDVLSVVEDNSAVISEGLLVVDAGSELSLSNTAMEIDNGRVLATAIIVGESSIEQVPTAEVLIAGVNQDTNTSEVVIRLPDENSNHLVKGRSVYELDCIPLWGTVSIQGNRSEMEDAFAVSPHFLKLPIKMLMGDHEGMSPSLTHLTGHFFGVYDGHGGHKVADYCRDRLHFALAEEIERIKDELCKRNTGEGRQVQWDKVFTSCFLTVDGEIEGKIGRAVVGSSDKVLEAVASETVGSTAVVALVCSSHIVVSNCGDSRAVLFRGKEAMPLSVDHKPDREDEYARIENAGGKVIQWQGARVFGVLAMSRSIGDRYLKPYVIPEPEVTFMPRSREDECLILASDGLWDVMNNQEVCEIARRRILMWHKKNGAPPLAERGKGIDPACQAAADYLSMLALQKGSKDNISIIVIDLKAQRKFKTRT
Method: FIGS. 2A-2B. […] FIG. 2A. The mutants (listed on left side of panel) were constructed in pBD-PYR1 and transformed into Y190 pAD-HAB1 yeast cells. The transformants were then grown on increasing concentrations of fenhexamid and scored for responsiveness using X-gal staining, performed as described in Park et al., 2009. As shown, the mutations K59R, Y120H, and M1581 are necessary for fenhexamid response by 27C-2. FIG. 2B. In vitro characterization of the PYR1 K59R, Y120H, M158I mutant. Recombinant wild-type and mutant PYR1 proteins were produced as described previously and used in PP2C assays, as described previously (Park et al., 2009), with the exception that a 2:1 ratio of receptor to phosphatase was utilized.
To establish the relevance of the residues identified by our screens, we focused on a highly sensitive fenhexamid-responsive mutant identified, 27C-2, which contains 5 mutations (P42S, K59R, R74C, Y120H, and M158I; SEQ ID NO:171; see Table 8) in comparison to the wild-type PYR1 sequence. […] To probe the role of the 5 mutations in fenhexamid response, each of these residues were reverted back to the wild-type residue using site-directed mutagenesis.

[3] = target: T2, 6×-His-PYR1(27-18) (S47P, K59R, Y120H) (Arabidopsis thaliana, UniProt O49686, K59R/S47P/Y120H); test: In vitro PP2C phosphatase activity assay (receptor activation = inhibition of PP2C); format: biochemical; details: mutant 27-18; increasing concentrations; 10 mM Mn++ buffer; FIG. 1
T2 construct: 6x-His (N); made in house
T2 sequence (O49686 whole entry S47P/K59R/Y120H): as the sequence (O49686 whole entry K59R/Y120H/M158I) above, with S47P, I158M counted along it
T2 sequence (Q9CAJ0 23-511, stated change not applied, further chain): as the sequence (Q9CAJ0 23-511, further chain) above
Method: FIGS. 1A-1B. PYR1 mutant 27-18 confers responsiveness to fenhexamid but not ABA. Representative PYR1 mutant 27-18 (comprising S47P, K59R, and Y120H substitution mutations) was tested for responsiveness to abscisic acid (“ABA”) (FIG. 1A) and fenhexamid (FIG. 1B) at increasing concentrations as compared to a wild-type PYR1 control using an in vitro PP2C phosphatase activity assay.
To probe orthogonal receptor-ligand interactions further, recombinant protein was expressed for the fenhexamid-responsive mutant 27-18, which has three mutations in PYR1. 6×-His-PYR1(27-18) protein was expressed and purified alongside wild-type PYR1 protein. Both proteins were tested for their ability to inhibit PP2C activity in response to increasing concentrations of either ABA or fenhexamid using phosphatase activity assays, in which activation of the PYR/PYL receptor is monitored by inhibition of PP2C activity (FIG. 1).

SMILES: CC1(C(=O)Nc2ccc(O)c(Cl)c2Cl)CCCCC1 [fenhexamid]
- Water loss from detached rosettes [1]: sufficient to reduce water loss
- IC50 [2]: ~0.4 µM
- Receptor activation (inhibition of PP2C activity) [3]: activated
